This is an account of results in the RepoRT retention time repository (doi:10.1016/j.chroma.2019.01.023).

SMILES strings stand for the structures.

Holding throughout (conditions): stereoisomer not certain
A short description of data set [1]: RP, Phenomenex Kinetex C18, 150 × 2.1 mm, 1.7 µm, 30 °C, 0.3 mL/min, estimated dead time 1.1 min; A: water + 0.1% formic acid, pH 3; B: acetonitrile + 0.1% formic acid, pH 3; gradient (min/%B) 0/2 14/100 17/100 17.1/2 25/2.
A short description of data set [2]: HILIC, Waters ACQUITY UPLC BEH Amide, 150 × 2.1 mm, 1.7 µm, 40 °C, 0.5 mL/min, estimated dead time 0.66 min; A: 5% water + 95% acetonitrile; B: 70% water + 30% acetonitrile + 10 mM ammonium formate, pH 6.5; gradient (min/%B) 0/0 2/0 20/70 23/70 24/0 31/0.
The nature of data set [3]: RP, Phenomenex Kinetex C18, 150 × 2.1 mm, 1.7 µm, 30 °C, 0.3 mL/min, estimated dead time 1.1 min; A: water + 0.1% formic acid, pH 3; B: acetonitrile + 0.1% formic acid, pH 3; gradient (min/%B) 0/2 14/100 17/100 17.1/2 25/2. The source holds these as a separate data set.
Data set [4] is described as follows: HILIC, Merck SeQuant ZIC-pHILIC, 150 × 2.1 mm, 5 µm, 40 °C, 0.3 mL/min, estimated dead time 1.1 min; A: acetonitrile; B: water + 2.8 mM ammonium formate, pH 9; gradient (min/%B) 0/5 1/5 10/51 13/51 13.1/5 20/5.

Turning to `O=C(O)CCCCC1SCC2NC(=O)NC21` (configuration not stated) [BIOTIN], the LC retention time in data set [1] was 4.98 min; in data set [2], 5.11 min; in data set [3] it was 4.77 min; in data set [4], 5.57 min.

For `CC(CCC(=O)O)C1CCC2C3C(O)CC4CC(O)CCC4(C)C3CC(O)C12C` (configuration not stated) [CHOLATE], the LC retention time in data set [1] is 9.11 min; in data set [2], 2.62 min; in data set [3] it was 9.02 min; in data set [4], 2.33 min.

Regarding `CC12CCC(=O)C=C1CCC1C2C(O)CC2(C)C1CCC2(O)C(=O)CO` (configuration not stated) [CORTISOL], the LC retention time was 7.18 min in data set [1], 1 min in data set [2], 7.09 min in data set [3] and 1.43 min in data set [4].

For the molecule `Nc1ncnc2c1ncn2C1CC(O)C(CO)O1` (configuration not stated) [DEOXYADENOSINE], the LC retention time was 2.8 min in data set [1], 2.91 min in data set [2], 2.54 min in data set [3] and 5.19 min in data set [4].

On to `Nc1ccn(C2CC(O)C(CO)O2)c(=O)n1` (configuration not stated) [DEOXYCYTIDINE], for which the LC retention time is 1.54 min in data set [1], 5.71 min in data set [2], 1.43 min in data set [3] and 6.63 min in data set [4].

As for `Nc1nc2c(ncn2C2CC(O)C(CO)O2)c(=O)[nH]1` (configuration not stated) [DEOXYGUANOSINE], the LC retention time is 2.97 min in data set [1], 6.48 min in data set [2], 2.84 min in data set [3] and 7.04 min in data set [4].

With `O=c1ccn(C2CC(O)C(CO)O2)c(=O)[nH]1` (configuration not stated) [DEOXYURIDINE], the LC retention time in data set [1] was 2.63 min; in data set [2], 2.37 min; in data set [3], 2.39 min; in data set [4] it was 4.73 min.

As for `CC1NC(=O)NC1CCCCCC(=O)O` (configuration not stated) [DETHIOBIOTIN], the LC retention time was 5.37 min in data set [1], 2.6 min in data set [2], 5.18 min in data set [3] and 3.18 min in data set [4].

Regarding `COc1cc(C=CC(=O)O)ccc1O` [FERULATE], the LC retention time in data set [1] is 5.87 min; in data set [2], 1.24 min; in data set [3] it was 5.76 min; in data set [4], 3.78 min.

With `Nc1nc2nc[nH]c2c(=O)[nH]1` [GUANINE], the LC retention time in data set [1] was 1.44 min; in data set [2], 6.4 min; in data set [3], 1.64 min; in data set [4], 7.4 min.

As for `Nc1nc2c(ncn2C2OC(CO)C(O)C2O)c(=O)[nH]1` (configuration not stated) [GUANOSINE], the LC retention time was 2.8 min in data set [1], 7.3 min in data set [2], 2.67 min in data set [3] and 7.76 min in data set [4].

For `O=C(O)CNC(=O)c1ccccc1` [HIPPURATE], the LC retention time in data set [1] was 4.78 min; in data set [2] it was 2.66 min; in data set [3], 4.62 min; in data set [4] it was 5.32 min.

`O=c1[nH]cnc2nc[nH]c12` [HYPOXANTHINE]: the LC retention time in data set [1] is 1.76 min; in data set [2], 3.88 min; in data set [3], 1.62 min; in data set [4], 6.25 min.

`NC(=O)Cc1c[nH]c2ccccc12` [INDOLE-3-ACETAMIDE]: the LC retention time in data set [1] was 5.42 min; in data set [2], 0.98 min; in data set [3], 5.26 min; in data set [4], 2.09 min.

Consider `OCCc1c[nH]c2ccccc12` [INDOLE-3-ETHANOL], for which the LC retention time in data set [1] was 6.56 min; in data set [2] it was 0.83 min; in data set [3] it was 5.55 min; in data set [4], 3.41 min.

In the case of `O=c1[nH]cnc2c1ncn2C1OC(CO)C(O)C1O` (configuration not stated) [INOSINE], the LC retention time in data set [1] is 2.79 min; in data set [2] it was 5.52 min; in data set [3], 2.64 min; in data set [4] it was 6.86 min.

As for `O=C(O)c1cc(=O)c2ccccc2[nH]1` [KYNURENATE], the LC retention time in data set [1] was 4.34 min; in data set [2], 2.69 min; in data set [3], 4.19 min; in data set [4], 5.56 min.

In the case of `NC(=O)[C@@H](N)Cc1c[nH]c2ccccc12` [L-TRYPTOPHANAMIDE], the LC retention time in data set [1] is 3.82 min; in data set [2] it was 5.86 min; in data set [3] it was 3.7 min; in data set [4], 7.51 min.

On to `Cc1cc2nc3[nH]c(=O)[nH]c(=O)c3nc2cc1C` [LUMICHROME], for which the LC retention time is 6.2 min in data set [1], 1.32 min in data set [2], 6.13 min in data set [3] and 2.06 min in data set [4].

Regarding `COc1ccc2[nH]cc(CCNC(C)=O)c2c1` [MELATONIN], the LC retention time is 6.37 min in data set [1], 0.88 min in data set [2], 6.29 min in data set [3] and 1.36 min in data set [4].

For the molecule `CSCC1OC(n2cnc3c(N)ncnc32)C(O)C1O` (configuration not stated) [METHYLTHIOADENOSINE], the LC retention time was 4.07 min in data set [1], 1.99 min in data set [2], 3.82 min in data set [3] and 3.94 min in data set [4].

`CC(C)=CCNc1ncnc2nc[nH]c12` [N6-(DELTA2-ISOPENTENYL)-ADENINE]: the LC retention time in data set [1] is 5.14 min; in data set [2], 1.15 min; in data set [3], 4.91 min; in data set [4] it was 2.04 min.

Consider `CC(=O)NC(CC(C)C)C(=O)O` (configuration not stated) [N-ACETYLLEUCINE], for which the LC retention time in data set [1] was 5.25 min; in data set [2], 4.22 min; in data set [3], 5.08 min; in data set [4] it was 3.02 min.

Turning to `CSCCC(NC(C)=O)C(=O)O` (configuration not stated) [N-ACETYLMETHIONINE], the LC retention time in data set [1] was 4.22 min; in data set [2], 3.31 min; in data set [3] it was 4.1 min; in data set [4], 4.9 min.

Consider `CC(=O)NC(Cc1ccccc1)C(=O)O` (configuration not stated) [N-ACETYLPHENYLALANINE], for which the LC retention time is 5.64 min in data set [1], 2.48 min in data set [2], 5.54 min in data set [3] and 4.08 min in data set [4].

Regarding `CC(=O)NCCc1c[nH]c2ccc(O)cc12` [N-ACETYLSEROTONIN], the LC retention time in data set [1] is 4.83 min; in data set [2], 1.02 min; in data set [3], 4.58 min; in data set [4] it was 2.26 min.

Take `CC(=O)NC(Cc1c[nH]c2ccccc12)C(=O)O` (configuration not stated) [N-ACETYLTRYPTOPHAN]: the LC retention time in data set [1] was 5.91 min; in data set [2], 2.78 min; in data set [3], 5.82 min; in data set [4], 5.66 min.

Consider `CSCC[C@H](NC=O)C(=O)O` [N-FORMYL-L-METHIONINE], for which the LC retention time in data set [1] was 3.93 min; in data set [2], 2.24 min; in data set [3] it was 3.85 min; in data set [4] it was 5.35 min.

In the case of `CC(C)(CO)C(O)C(=O)NCCC(=O)O` (configuration not stated) [PANTOTHENATE], the LC retention time in data set [1] was 3.49 min; in data set [2], 3.31 min; in data set [3], 3.4 min; in data set [4] it was 6.03 min.

For the molecule `Cn1c(=O)[nH]c2ncn(C)c2c1=O` [PARAXANTHINE], the LC retention time in data set [1] was 4.04 min; in data set [2], 1.36 min; in data set [3], 2.27 min; in data set [4] it was 2.16 min.

As to `NC(Cc1ccccc1)C(=O)O` (configuration not stated) [PHENYLALANINE], the LC retention time was 3.18 min in data set [1], 7.87 min in data set [2], 3.13 min in data set [3] and 7.04 min in data set [4].

With `Cc1ncc(CO)c(CO)c1O` [PYRIDOXINE], the LC retention time in data set [1] is 1.81 min; in data set [2], 3.29 min; in data set [3], 1.65 min; in data set [4], 3.69 min.

As for `Cc1cc2nc3c(=O)[nH]c(=O)nc-3n(CC(O)C(O)C(O)CO)c2cc1C` (configuration not stated) [RIBOFLAVIN], the LC retention time in data set [1] was 4.85 min; in data set [2], 6.01 min; in data set [3], 4.65 min; in data set [4], 5.9 min.

`NC(=O)c1ccccc1O` [SALICYLAMIDE]: the LC retention time was 5.42 min in data set [1], 0.81 min in data set [2], 5.26 min in data set [3] and 1.46 min in data set [4].

For the molecule `O=C(O)CCCCCCCCC(=O)O` [SEBACATE], the LC retention time is 7 min in data set [1], 1.12 min in data set [2], 6.91 min in data set [3] and 2.41 min in data set [4].

Consider `Cn1c(=O)c2[nH]cnc2n(C)c1=O` [THEOPHYLLINE], for which the LC retention time in data set [1] was 4.07 min; in data set [2], 1.36 min; in data set [3] it was 3.88 min; in data set [4], 1.98 min.

As to `CSc1ncnc2nc[nH]c12` [THIOPURINE S-METHYLETHER], the LC retention time in data set [1] is 4.64 min; in data set [2], 1.08 min; in data set [3], 4.4 min; in data set [4], 2.09 min.

`Cc1cn(C2CC(O)C(CO)O2)c(=O)[nH]c1=O` (configuration not stated) [THYMIDINE]: the LC retention time in data set [1] is 3.34 min; in data set [2], 1.97 min; in data set [3], 3.21 min; in data set [4] it was 3.56 min.
